Laboratory results reported in patent publication US20240391862A1, “(1,4,5-TRISUBSTITUTED-1H-PYRAZOL-3-YL)OXY-2-ALKOXY ALKYL ACIDS AND THEIR DERIVATIVES, THEIR SALTS AND THEIR USE AS HERBICIDAL AGENTS” (Bayer AKtiengesellschaft, priority 2021, published 2024).

How the values were obtained:
TRZAS = assay: Post-emergence herbicidal effect and crop plant compatibility, greenhouse pot test; type: in vivo, Triticum aestivum; conditions: 20 g/ha, one-leaf stage, rated visually after about 3 weeks vs untreated controls
Summary of the method: (§1)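 Greenhouse pot test: weeds and crops sown in sandy loam, sprayed post-emergence at one-leaf stage (2–3 weeks after sowing) with WP or EC formulations plus 0.5% additive at 600 l/ha water, rates 20–320 g/ha. Visual rating about 3 weeks later versus untreated controls (100% = dead, 0% = as control).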

ZEAMX = assay: as above; type: in vivo, Zea mays; conditions: one-leaf stage, rated visually after about 3 weeks vs untreated controls; for plant injury at 80 g/ha: read-out: Post-emergence effect at 80 g/ha against ZEAMX in %
Summary of the method: as §1

ORYSA = assay: as above; type: in vivo, Oryza sativa; conditions: for Post-emergence effect at 320 g/ha against ORYSA in %: one-leaf stage, rated visually after about 3 weeks vs untreated controls; for Post-emergence effect against ORYSA: visual rating about 3 weeks after treatment, crop plant
From the text: • ALOMY: Alopecurus myosuroides SETVI: Setaria viridis • AVEFA: Avena fatua POLCO: Fallopia convolvulus • AMARE: Amaranthus retroflexus ECHCG: Echinochloa crus-galli • LOLRJ: Lolium rigidum STEME: Stellaria media • VERPE: Veronica persica MATIN: Tripleurospermum inodorum • DIGSA: Digitaria sanguinalis ABUTH: Abutylon threophrasti • TRZAS: Triticum aestivum VIOTR: Viola tricolor • BRSNW: Brassica napus ZEAMX: Zea mays • PHBPU: Ipomoea purpurea GLXMA: Glycine max • ORYSA: Oryza sativa HORMU: Hordeum murinum
Seeds of monocotyledonous and dicotyledonous weeds and crop plants are placed in sandy loam in plastic or organic planting pots, covered with soil and cultivated in a greenhouse under controlled growth conditions. 2 to 3 weeks after sowing, the trial plants are treated at the one-leaf stage. The compounds of the invention, formulated in the form of wettable powders (WP) or as emulsion concentrates (EC), are then sprayed onto the green parts of the plants as aqueous suspension or emulsion with addition of 0.5% additive at a water application rate of 600 l/ha (converted). After the test plants have been kept in the greenhouse under optimum growth conditions for about 3 weeks, the activity of the preparations is rated visually in comparison to untreated controls. For example, 100% activity=the plants have died, 0% activity=like control plants.
Tables 20a to 38c below show the effects/crop compatibilities of selected compounds of the general formula (I) on various harmful plants at an application rate corresponding to 20 to 320 g/ha, which were obtained by the trial procedure specified above.

PHBPU = assay: Post-emergence herbicidal effect, greenhouse pot test; type: in vivo, Ipomoea purpurea
Summary of the method: (§2)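 Weeds sown in sandy loam, greenhouse-grown 2–3 weeks, then sprayed at one-leaf stage with WP or EC formulations in water plus 0.5% additive at 600 l/ha. Rates 20 to 320 g/ha. Visual rating after about 3 weeks versus untreated controls (100% = plants dead, 0% = like control).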

VIOTR = assay: as above; type: in vivo, Viola tricolor
Summary of the method: as §2

ABUTH = assay: as above; type: in vivo, Abutilon theophrasti; conditions: visual rating about 3 weeks after treatment
Summary of the method: as §2

ALOMY = assay: as above; type: in vivo, Alopecurus myosuroides; conditions: 320 g/ha, visual rating about 3 weeks after treatment
Summary of the method: as §2

AVEFA = assay: as above; type: in vivo, Avena fatua; conditions: 320 g/ha, visual rating about 3 weeks after treatment
Summary of the method: as §2

SETVI = assay: as above; type: in vivo, Setaria viridis
Summary of the method: as §2

DIGSA = assay: as above; type: in vivo, Digitaria sanguinalis; conditions: visual rating about 3 weeks after treatment
Summary of the method: as §2

LOLRI = assay: as above; type: in vivo, Lolium rigidum; conditions: 320 g/ha
Summary of the method: as §2

MATIN = assay: as above; type: in vivo, Tripleurospermum inodorum
Summary of the method: as §2

ECHCG = assay: as above; type: in vivo, Echinochloa crus-galli
Summary of the method: as §2

VERPE = assay: as above; type: in vivo, Veronica persica
Summary of the method: as §2

AMARE = assay: as above; type: in vivo, Amaranthus retroflexus; conditions: visual rating about 3 weeks after treatment
Summary of the method: as §2

POLCO = assay: as above; type: in vivo, Fallopia convolvulus
Summary of the method: as §2

Compound: COC(Oc1nn(-c2ccccc2F)c(-c2ccc(F)nc2)c1Br)C(=O)O (stereo not shown) [Example I-12]
- Post-emergence effect at 20 g/ha against TRZAS in % (TRZAS): 0%
- Post-emergence effect at 20 g/ha against ZEAMX in % (ZEAMX; 20 g/ha): 0%
- plant injury at 80 g/ha (ZEAMX; Zea mays, 504 h): 20%
- Post-emergence effect at 320 g/ha against ORYSA in % (ORYSA): 20%

Compound: COC(=O)C(OC)Oc1nn(-c2ccc(F)nc2)c(-c2ccc(F)nc2)c1Br (stereo not shown) [Example I-15]
- percent crop injury (phytotoxicity) to wheat, post-emergence at 20 g/ha (TRZAS; Triticum aestivum, 504 h, read-out: Post-emergence effect at 20 g/ha against TRZAS in %): 0%
- plant injury at 20 g/ha (ZEAMX; Zea mays, 504 h, 20 g/ha, read-out: Post-emergence effect at 20 g/ha against ZEAMX in %): 0%
- plant injury at 80 g/ha (ZEAMX; Zea mays, 504 h): 10%
- plant injury at 320 g/ha (ZEAMX; Zea mays, 504 h, 320 g/ha, read-out: Post-emergence effect at 320 g/ha against ZEAMX in %): 20%
- pest or weed control at 320 g/ha (PHBPU; Ipomoea purpurea, 504 h, 320 g/ha, read-out: Post-emergence effect against PHBPU in %): 80%
- pest or weed control at 320 g/ha (VIOTR; Viola tricolor, 504 h, 320 g/ha, read-out: Post-emergence effect against VIOTR in %): 80%
- Post-emergence effect at 320 g/ha against ORYSA in % (ORYSA): 10%

Compound: COC(=O)C(OC)Oc1nn(-c2cccc(Cl)c2F)c(-c2cncc(F)c2)c1Br (stereo not shown) [Example I-17]
- Post-emergence effect against ABUTH (ABUTH; 20 g/ha): 80%
- Post-emergence effect against ABUTH (ABUTH; 80 g/ha): 90%
- Post-emergence effect against ABUTH (ABUTH; 320 g/ha): 90%
- Post-emergence effect against ALOMY (ALOMY): 90%
- Post-emergence effect against AVEFA (AVEFA): 90%
- Post-emergence effect at 20 g/ha against TRZAS in % (TRZAS): 10%
- Post-emergence effect against SETVI in % (SETVI; 80 g/ha): 80%
- Post-emergence effect against SETVI in % (SETVI; 320 g/ha): 90%
- Post-emergence effect against DIGSA (DIGSA; 80 g/ha): 80%
- Post-emergence effect against DIGSA (DIGSA; 320 g/ha): 90%
- Post-emergence effect against LOLRI in % (LOLRI): 80%
- Post-emergence effect against PHBPU in % (PHBPU; 20 g/ha): 90%
- Post-emergence effect against PHBPU in % (PHBPU; 80 g/ha): 90%
- Post-emergence effect against PHBPU in % (PHBPU; 320 g/ha): 90%
- Post-emergence effect against MATIN in % (MATIN; 20 g/ha): 80%
- Post-emergence effect against MATIN in % (MATIN; 80 g/ha): 80%
- Post-emergence effect against MATIN in % (MATIN; 320 g/ha): 80%
- Post-emergence effect against VIOTR in % (VIOTR; 20 g/ha): 90%
- Post-emergence effect against VIOTR in % (VIOTR; 80 g/ha): 90%
- Post-emergence effect against VIOTR in % (VIOTR; 320 g/ha): 90%
- Post-emergence effect against ECHCG in % (ECHCG; 80 g/ha): 80%
- Post-emergence effect against ECHCG in % (ECHCG; 320 g/ha): 90%
- Post-emergence effect against VERPE in % (VERPE; 20 g/ha): 80%
- Post-emergence effect against VERPE in % (VERPE; 80 g/ha): 80%
- Post-emergence effect against VERPE in % (VERPE; 320 g/ha): 90%
- Post-emergence effect against ORYSA (ORYSA; 20 g/ha): 0%
- Post-emergence effect against ORYSA (ORYSA; 80 g/ha): 20%
- Post-emergence effect against AMARE (AMARE; 20 g/ha): 80%
- Post-emergence effect against AMARE (AMARE; 80 g/ha): 80%
- Post-emergence effect against AMARE (AMARE; 320 g/ha): 80%
- Post-emergence effect against POLCO in % (POLCO; 80 g/ha): 80%
- Post-emergence effect against POLCO in % (POLCO; 320 g/ha): 80%
